According to patent US20250186452A1, “NOVEL USE OF QUINOLINE COMPOUND” (TARAPEUTICS SCIENCE INC., priority 2022, published 2025):

Legend:
[1] = system: MC38 cells; test: In vivo efficacy in MC38 cell tumor transplantation mouse model
Experimental: (§1) In this example, the experimental effects of Compound 2 and the control compound PLX3397 (purchased from MedChem Express, China) in MC38 and 4T1 mouse models were tested respectively.
(§2) The experimental procedure was as follows: • (1) C57BL/6J male mice for use as MC38 transplanted tumor model and Balb/c male mice for use as 4T1 transplanted tumor model, which were 6 weeks old, were purchased from GemPharmatech Co., Ltd, Jiangsu. All the above mice were raised in an SPF laboratory, and the drinking water and padding had been sterilized by high pressure sterilization. All operations related to mice were performed under sterile conditions. • (2) On day 0, approximately 1×10^6 MC38 cells (purchased from ATCC) were injected subcutaneously into the left back of each of the C57BL/6J mice, and approximately 1×10^6 4T1 cells (purchased from ATCC) were injected subcutaneously into the left back of each of the Balb/c mice. • (3) For the MC38 mouse model, starting from the 6th day, the corresponding mice were orally administered with methylcellulose (HKI) (purchased from China National Pharmaceutical Group Corporation) solvent once a day (5 mice); Compound 2 at a dose of 50 mg/kg mouse weight once a day (5 mice); PLX3397 at a dose of 50 mg/kg mouse weight once a day (5 mice). For the 4T1 mouse model, starting from the 6th day, the corresponding mice were orally administered with 10% HS-15 (purchased from BASF, Germany) solvent (5 mice); Compound 2 at a dose of 50 mg/kg mouse weight once a day (5 mice); PLX3397 at a dose of 50 mg/kg mouse weight once a day (5 mice). • (4) Starting from the 6th day, the length/width of the subcutaneous tumor was measured with a vernier caliper every day, and the weight of the mice was recorded every day to determine the effects of Compound 2 and control compound PLX3397 on the weight of mice in different model mice. The results are shown in FIGS. 3 and 6. • (5) The growth trends of subcutaneous tumors in mice of different models were statistically analyzed. The tumor volume was calculated using the following method: length×width×width/2 mm^3. The results are shown in FIGS. 4 and 7. • (6) Isolation of tumor-infiltrating lymphocytes: Tumor tissue was first minced (tissue block less than 1 mm^3) with a surgical blade, resuspended in 6 ml of digestion solution (collagenase IV and 0.005% DNaseI enzyme, both purchased from Sigma, USA), and the mixture was transferred to a 15-ml centrifuge tube. The centrifuge tube was then placed in a shaker at 37° C. and digested with shaking at 220 r/min for 2 hours. The cells were sieved through a 200-mesh sieve and collected in a 50-ml centrifuge tube, and centrifuged at 1500 rpm for 10 minutes. The supernatant was then discarded, and 10 ml of DMEM medium (10% FBS) (purchased from GIBCO, USA) was added to the tube to terminate the digestion. The tube was placed in a centrifuge, and centrifuged at 1500 rpm for another 10 minutes. The supernatant was discarded. At the same time, Percoll separation solution (purchased from Millipore, USA) was prepared, and 90% Percoll separation working solution was prepared using 10×PBS. To a 15 ml centrifuge tube, 3-4 ml of 70% Percoll separation solution was added. The cells were resuspended in 4 ml of 40% Percoll separation solution, and the cell mixture was added to the 70% Percoll separation solution. The centrifuge tube was placed in a centrifuge and subjected to density gradient centrifugation at 25° C., 1260 g, for 30 minutes (speed up 5, speed down 0). After the centrifugation, the centrifuge tube was placed on a centrifuge tube rack, the middle leukocyte layer was aspirated with a pipette, and added to 10 ml of PBS, they were mixed well and placed in a centrifuge, and centrifuged at 1500 rpm. The cell supernatant was discarded after 10 min and the cells were resuspended in 5 ml of PBS, centrifuged at 1500 rpm for another 10 min, and the washing process was repeated once. The cells obtained were leukocytes in the tumor tissue. […]

[2] = system: 4T1 cells; test: In vivo efficacy in 4T1 cell tumor transplantation mouse model; conditions: 4T1 model
Experimental: as §1, §2

[3] = 50 mg/kg oral once a day, as days of administration increased

For `COc1cc2nccc(Oc3ccc(NC(=O)Cc4ccc(Cl)c(C(F)(F)F)c4)cc3)c2cc1OC` [Example 2, N-(4-((6,7-dimethoxyquinolin-4-yl)oxy)phenyl)-2-(4-chloro-3-(trifluoromethyl)phenyl)-acetamide], the “toxicity (mouse body weight)” value ([1]; 50 mg/kg oral once a day, FIG. 3) was “no obvious toxicity”, the “inhibition effect of mouse tumors” value ([1]; 50 mg/kg oral once a day, FIG. 4) was “good inhibition effect of mouse tumors” and the “inhibitory effect on mouse tumors compared with PLX3397” value [1, 3] was “superior to the effect of the control compound PLX3397”. The “proportion of M1 macrophages around the tumor versus solvent group” value ([1]; 50 mg/kg oral, flow cytometry, FIG. 5) was “much higher than that in the solvent group”, the “proportion of M1 macrophages in the tumor microenvironment versus PLX3397 group” value ([1]; same dose 50 mg/kg, FIG. 5) was “higher than that of the PLX3397 group” and the “toxicity (mouse body weight)” value ([2]; 50 mg/kg oral once a day, FIG. 6) was “no obvious toxicity”. The “inhibition effect of mouse tumors” value ([2]; 50 mg/kg oral once a day, FIG. 7) was “good inhibition effect of mouse tumors”, the “inhibitory effect on mouse tumors compared with PLX3397” value [2, 3] was “superior to the effect of the control compound PLX3397” and the “proportion of M1 macrophages around the tumor versus solvent group” value ([2]; 50 mg/kg oral, flow cytometry, FIG. 8) was “much higher than that in the solvent group”. The “proportion of M1 macrophages in the tumor microenvironment versus PLX3397 group” value ([2]; same dose 50 mg/kg, FIG. 8) was “higher than that of the PLX3397 group”.
